What was measured:
large (Lg) crabgrass = assay: Test A preemergence; format: in vivo, Digitaria sanguinalis
Procedure, shortened: (§1)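 Visual 0–100 rating (100 = complete control) taken about 10 d post-treatment relative to untreated checks. Preemergence: directed soil spray on sown loam/sand pots. Postemergence: seedlings 2–10 cm, 1–2 leaf. Non-phytotoxic solvent formulation with surfactant.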

morningglory [1] = assay: Test A preemergence; format: in vivo, Ipomoea spp.
Procedure, shortened: as §1

velvetleaf = assay: Test A preemergence; format: in vivo, Abutilon theophrasti
Procedure, shortened: as §1

corn [2] = assay: Test A preemergence; format: in vivo, Zea mays
Procedure, shortened: as §1

barnyardgrass [3] = assay: Test A postemergence; format: in vivo, Echinochloa crus-galli; conditions: 0 to 100 scale where 0 is no effect and 100 is complete control
Procedure, shortened: as §1

wheat = assay: Test A postemergence; format: in vivo, Triticum aestivum; conditions: 0 to 100 scale where 0 is no effect and 100 is complete control
Procedure, shortened: as §1

rice = assay: Test B flooded paddy test; format: in vivo, Oryza sativa; conditions: Flood, 250 g ai/ha; 0 to 100 scale where 0 is no effect and 100 is complete control
Procedure, shortened: (§2)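 Scores from 0 (no effect) to 100 (complete control) are visual comparisons with controls, taken 13 to 15 days after compound was applied into floodwater 3 cm deep around 2-leaf plants.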

sedge, umbrella = assay: Test B flooded paddy test; format: in vivo, Cyperus difformis; conditions: Flood, 250 g ai/ha; 0 to 100 scale where 0 is no effect and 100 is complete control
Procedure, shortened: as §2

Heteranthera limosa = assay: Test B flooded paddy test; format: in vivo; conditions: Flood, 250 g ai/ha; 0 to 100 scale where 0 is no effect and 100 is complete control
Procedure, shortened: as §2

barnyardgrass [4] = assay: Test B flooded paddy test; format: in vivo, Echinochloa crus-galli; conditions: Flood, 250 g ai/ha; 0 to 100 scale where 0 is no effect and 100 is complete control
Procedure, shortened: as §2

wheat, winter = assay: Test C postemergence; format: in vivo, Triticum aestivum
Procedure, shortened: (§3)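 Injury was assessed visually against controls 13 to 15 days after application, with 0 meaning no effect and 100 full control; missing entries are shown as a dash. Preemergence sprays hit seeded loam–sand soil, postemergence sprays hit 1- to 4-leaf plants.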

corn [5] = assay: Test C postemergence; format: in vivo, Zea mays
Procedure, shortened: as §3

giant foxtail = assay: Test C postemergence; format: in vivo, Setaria faberii
Procedure, shortened: as §3

morningglory [6] = assay: Test C postemergence; format: in vivo, Ipomoea coccinea
Procedure, shortened: as §3

yellow nutsedge = assay: Test C postemergence; format: in vivo, Cyperus esculentus
Procedure, shortened: as §3

ragweed = assay: Test C postemergence; format: in vivo, Ambrosia elatior
Procedure, shortened: as §3

soybean = assay: Test C postemergence; format: in vivo, Glycine max
Procedure, shortened: as §3

[7] = 500 g ai/ha, 0 to 100 scale where 0 is no effect and 100 is complete control
[8] = 16 g ai/ha, postemergence, 0 is no effect, 100 is complete control
[9] = 31 g ai/ha, postemergence, visual rating, scale 0 to 100 (0 no effect, 100 complete control), 13 to 15 days
[10] = 125 g ai/ha, postemergence, visual rating, scale 0 to 100 (0 no effect, 100 complete control)
[11] = Postemergence, 62 g ai/ha, scale 0 to 100 (0 no effect, 100 complete control), 13 to 15 days

Clc1cnc(Oc2cccc(Br)c2-n2cc(Cl)cn2)nc1 [Compound 221]
Crabgrass, Large plant response rating (0 to 100 scale) (large (Lg) crabgrass; 125 g ai/ha): 100
Crabgrass, Large plant response rating (large (Lg) crabgrass; [7]): 100
Morningglory plant response rating (0 to 100 scale) (morningglory [1]; 125 g ai/ha): 0
Morningglory plant response rating (morningglory [1]; [7]): 10
Velvetleaf plant response rating (0 to 100 scale) (velvetleaf; 125 g ai/ha): 10
Velvetleaf plant response rating (velvetleaf; [7]): 70
Corn plant response rating (0 to 100 scale) (corn [2]; 125 g ai/ha): 0
Corn plant response rating (corn [2]; [7]): 0
Barnyardgrass plant response rating (barnyardgrass [3]; 125 g ai/ha): 50
Plant response rating, Barnyardgrass (barnyardgrass [3]; 500 g ai/ha): 100
Wheat plant response rating (wheat; 125 g ai/ha): 0
Plant response rating, Wheat (wheat; 500 g ai/ha): 30
Plant response rating, Rice (rice): 0
Plant response rating, Sedge, Umbrella (sedge, umbrella): 0
Plant response rating, Ducksalad (Heteranthera limosa): 0
Plant response rating, Barnyardgrass (barnyardgrass [4]): 0
Plant response rating (0 to 100), Wheat (wheat, winter; [8]): 0
Wheat plant response rating (wheat, winter; [9]): 0
Plant response rating, Wheat (wheat, winter; [10]): 0
Plant response rating, Wheat (wheat, winter; [11]): 0
Plant response rating (0 to 100), Corn (corn [5]; [8]): 0
Corn plant response rating (corn [5]; [9]): 5
Plant response rating, Corn (corn [5]; [10]): 10
Plant response rating, Corn (corn [5]; [11]): 10
Plant response rating (0 to 100), Foxtail, Giant (giant foxtail; [8]): 0
Foxtail, Giant plant response rating (giant foxtail; [9]): 5
Plant response rating, Foxtail, Giant (giant foxtail; [10]): 5
Plant response rating, Foxtail, Giant (giant foxtail; [11]): 5
Plant response rating (0 to 100), Morningglory (morningglory [6]; [8]): 45
Morningglory plant response rating (morningglory [6]; [9]): 40
Plant response rating, Morningglory (morningglory [6]; [10]): 55
Plant response rating, Morningglory (morningglory [6]; [11]): 50
Plant response rating (0 to 100), Nutsedge, Yellow (yellow nutsedge; [8]): 0
Nutsedge, Yellow plant response rating (yellow nutsedge; [9]): 0
Plant response rating, Nutsedge, Yellow (yellow nutsedge; [10]): 10
Plant response rating, Nutsedge, Yellow (yellow nutsedge; [11]): 5
Plant response rating (0 to 100), Ragweed (ragweed; [8]): 5
Ragweed plant response rating (ragweed; [9]): 5
Plant response rating, Ragweed (ragweed; [10]): 10
Plant response rating, Ragweed (ragweed; [11]): 20
Plant response rating (0 to 100), Soybean (soybean; [8]): 30
Soybean plant response rating (soybean; [9]): 55
Plant response rating, Soybean (soybean; [10]): 80
Plant response rating, Soybean (soybean; [11]): 65
